Values after ≈ are worked out from the molar mass of the structure shown. Active and inactive are the calls of the source. No cut-off for these calls is given here.
Columns and labels:
Enterococcus faecalis [1] = assay: Synergistic antibacterial activity against Enterococcus faecalis MTCC 439 assessed as fractional inhibitory concentration index incubated overnight in presence of ciprofloxacin by microdilution checkerboard assay; format: functional
Bacillus subtilis [2] = assay: Antibacterial activity against Bacillus subtilis MTCC 736 assessed as inhibition of bacterial growth at 200 ug/ml incubated overnight by spectrophotometry relative to control; format: functional
Bacillus subtilis [3] = assay: Antibacterial activity against Bacillus subtilis MTCC 736 assessed as diameter of zone of inhibition at MIC incubated overnight by disk diffusion method; format: functional
Bacillus subtilis [4] = assay: Ratio of MBC for antibacterial activity against Bacillus subtilis MTCC 736 to MIC for bactericidal activity against Bacillus subtilis MTCC 736; format: functional
Escherichia coli [5] = assay: Antibacterial activity against Escherichia coli MTCC 443 assessed as diameter of zone of inhibition at 500 ug/ml by agar disk diffusion method; format: functional; conditions: read-out: DIZ
Salmonella typhi [6] = assay: Bactericidal activity against Salmonella typhi assessed as inhibition of bacterial growth incubated overnight; format: functional, Salmonella enterica subsp. enterica serovar Typhi; conditions: Salmonella enterica
Enterococcus faecalis [7] = assay: Antibacterial activity against Enterococcus faecalis MTCC 439 assessed as diameter of zone of inhibition at 500 ug/ml by agar disk diffusion method; format: functional; conditions: read-out: DIZ
Escherichia coli [8] = assay: Bactericidal activity against Escherichia coli MTCC 443 assessed as inhibition of bacterial growth incubated overnight; format: functional
Staphylococcus aureus [9] = assay: Bactericidal activity against Staphylococcus aureus MTCC 902 assessed as inhibition of bacterial growth incubated overnight; format: functional
Salmonella typhi [10] = assay: Antibacterial activity against Salmonella typhi assessed as diameter of zone of inhibition at 0.5 times MIC incubated overnight by disk diffusion method; format: functional, Salmonella enterica subsp. enterica serovar Typhi
Staphylococcus aureus [11] = assay: Synergistic antibacterial activity against Staphylococcus aureus MTCC 902 assessed as fractional inhibitory concentration index incubated overnight in presence of ciprofloxacin by microdilution checkerboard assay; format: functional
Enterococcus faecalis [12] = assay: Antibacterial activity against Enterococcus faecalis MTCC 439 assessed as inhibition of bacterial growth at 200 ug/ml incubated overnight by spectrophotometry relative to control; format: functional
Staphylococcus aureus [13] = assay: Antibacterial activity against Staphylococcus aureus MTCC 902 assessed as inhibition of bacterial growth at 200 ug/ml incubated overnight by spectrophotometry relative to control; format: functional
Escherichia coli [14] = assay: Antibacterial activity against Escherichia coli clinical isolate ECJH15 assessed as diameter of zone of inhibition by disk diffusion assay; format: functional
Staphylococcus aureus [15] = assay: Antibacterial activity against Staphylococcus aureus MTCC 902 assessed as diameter of zone of inhibition at 0.5 times MIC incubated overnight by disk diffusion method; format: functional
Escherichia coli [16] = assay: Antibacterial activity against Escherichia coli clinical isolate ECJH14 assessed as diameter of zone of inhibition by disk diffusion assay; format: functional
Escherichia coli [17] = assay: Antibacterial activity against Escherichia coli clinical isolate ECJH17 assessed as diameter of zone of inhibition by disk diffusion assay; format: functional
Pseudomonas aeruginosa = assay: Antibacterial activity against Pseudomonas aeruginosa MTCC 2453 assessed as diameter of zone of inhibition at 0.5 times MIC incubated overnight by disk diffusion method; format: functional
Escherichia coli [18] = assay: Antibacterial activity against Escherichia coli clinical isolate ECJH3 assessed as diameter of zone of inhibition by disk diffusion assay; format: functional
Escherichia coli [19] = assay: Antibacterial activity against Escherichia coli clinical isolate ECJH5 assessed as diameter of zone of inhibition by disk diffusion assay; format: functional
Escherichia coli [20] = assay: Antibacterial activity against Escherichia coli clinical isolate ECJH19 assessed as diameter of zone of inhibition by disk diffusion assay; format: functional
Escherichia coli [21] = assay: Antibacterial activity against Escherichia coli clinical isolate ECJH20 assessed as diameter of zone of inhibition by disk diffusion assay; format: functional
Escherichia coli [22] = assay: Antibacterial activity against Escherichia coli clinical isolate ECJH8 assessed as diameter of zone of inhibition by disk diffusion assay; format: functional
Escherichia coli [23] = assay: Antibacterial activity against Escherichia coli clinical isolate ECJH11 assessed as diameter of zone of inhibition by disk diffusion assay; format: functional
Escherichia coli [24] = assay: Antibacterial activity against Escherichia coli clinical isolate ECJH9 assessed as diameter of zone of inhibition by disk diffusion assay; format: functional
[25] = Hemolytic activity in human RBC assessed as hemolysis upto 500 ug/ml incubated for 1 hr by absorbance based analysis; format: toxicity, cell-based, Erythrocyte; conditions: red blood cells (RBC), up to 500 µg/mL, read-out: Activity
Escherichia coli [26] = assay: Antibacterial activity against Escherichia coli clinical isolate ECJH4 assessed as diameter of zone of inhibition by disk diffusion assay; format: functional
Bacillus subtilis [27] = assay: Antibacterial activity against Bacillus subtilis MTCC 736 assessed as diameter of zone of inhibition at 0.5 times MIC incubated overnight by disk diffusion method; format: functional
Escherichia coli [28] = assay: Antibacterial activity against Escherichia coli clinical isolate ECJH2 assessed as diameter of zone of inhibition by disk diffusion assay; format: functional
Escherichia coli [29] = assay: Antibacterial activity against Escherichia coli clinical isolate ECJH25 assessed as diameter of zone of inhibition by disk diffusion assay; format: functional
Escherichia coli [30] = assay: Antibacterial activity against Escherichia coli clinical isolate ECJH10 assessed as diameter of zone of inhibition by disk diffusion assay; format: functional
Escherichia coli [31] = assay: Antibacterial activity against Escherichia coli clinical isolate ECJH13 assessed as diameter of zone of inhibition by disk diffusion assay; format: functional
[32] = Hemolytic activity in human RBC assessed as hemolysis at 1000 ug/ml incubated for 1 hr by absorbance based analysis; format: toxicity, cell-based, Erythrocyte; conditions: red blood cells (RBC), at 1000 µg/mL, read-out: Activity
Escherichia coli [33] = assay: Antibacterial activity against Escherichia coli clinical isolate ECJH7 assessed as diameter of zone of inhibition by disk diffusion assay; format: functional
Escherichia coli [34] = assay: Antibacterial activity against Escherichia coli clinical isolate ECJH18 assessed as diameter of zone of inhibition by disk diffusion assay; format: functional
Escherichia coli [35] = assay: Antibacterial activity against Escherichia coli clinical isolate ECJH21 assessed as diameter of zone of inhibition by disk diffusion assay; format: functional
Staphylococcus aureus [36] = assay: Bacteriostatic activity against Staphylococcus aureus MTCC 902 assessed as reduction in bacterial growth at 0.5 to 2 times MIC measured upto 24 hrs by absorbance based assay; format: functional, organism-based
Escherichia coli [37] = assay: Bacteriostatic activity against Escherichia coli MTCC 443 assessed as reduction in bacterial growth at 0.5 to 2 times MIC measured upto 24 hrs by absorbance based assay; format: functional, organism-based
Escherichia coli [38] = assay: Antibacterial activity against Escherichia coli clinical isolate ECJH24 assessed as diameter of zone of inhibition by disk diffusion assay; format: functional
Escherichia coli [39] = assay: Antibacterial activity against Escherichia coli clinical isolate ECJH1 assessed as diameter of zone of inhibition by disk diffusion assay; format: functional
Escherichia coli [40] = assay: Antibacterial activity against Escherichia coli clinical isolate ECJH23 assessed as diameter of zone of inhibition by disk diffusion assay; format: functional
Escherichia coli [41] = assay: Antibacterial activity against Escherichia coli clinical isolate ECJH22 assessed as diameter of zone of inhibition by disk diffusion assay; format: functional
Escherichia coli [42] = assay: Antibacterial activity against Escherichia coli clinical isolate ECJH12 assessed as diameter of zone of inhibition by disk diffusion assay; format: functional
Escherichia coli [43] = assay: Antibacterial activity against Escherichia coli clinical isolate ECJH16 assessed as diameter of zone of inhibition by disk diffusion assay; format: functional
Escherichia coli [44] = assay: Antibacterial activity against Escherichia coli clinical isolate ECJH6 assessed as diameter of zone of inhibition by disk diffusion assay; format: functional

For `Clc1ccc2c(NCC/N=C/c3ccc4ccccc4n3)ccnc2c1`, the “fractional inhibitory concentration index (FICI)” value (Enterococcus faecalis [1]) was 0.312, the inhibition at 200 µg/mL (Bacillus subtilis [2]) was 100% and the “diameter of the inhibition zone (DIZ)” value (Bacillus subtilis [3]) was 6 mm. The Ratio (Bacillus subtilis [4]) was 4, the zone of inhibition at 500 µg/mL (Escherichia coli [5]) was 11 mm and the MBC (Salmonella typhi [6]) was 128 µg/mL (≈ 355 µM). For the same molecule, the zone of inhibition at 500 µg/mL (Enterococcus faecalis [7]) was 10 mm, the MBC (Escherichia coli [8]) was 128 µg/mL (≈ 355 µM) and the MBC (Staphylococcus aureus [9]) was 512 µg/mL (≈ 1420 µM). For the same molecule, the “diameter of the inhibition zone (DIZ)” value (Salmonella typhi [10]) was 9 mm, the “fractional inhibitory concentration index (FICI)” value (Staphylococcus aureus [11]) was 1.5 and the inhibition at 200 µg/mL (Enterococcus faecalis [12]) was 100%. For the same molecule, the inhibition at 200 µg/mL (Staphylococcus aureus [13]) was 100%.
In the case of `O=[N+]([O-])c1ccccc1/C=N/CCNc1ccnc2cc(Cl)ccc12`, the “diameter of the inhibition zone (DIZ)” value (Escherichia coli [14]) is reported as 11 mm, the “fractional inhibitory concentration index (FICI)” value (Enterococcus faecalis [1]) is reported as 0.265 and the “diameter of the inhibition zone (DIZ)” value (Staphylococcus aureus [15]) is reported as 8 mm. The “diameter of the inhibition zone (DIZ)” value (Escherichia coli [16]) was 12 mm, the “diameter of the inhibition zone (DIZ)” value (Bacillus subtilis [3]) was 9 mm and the Ratio (Bacillus subtilis [4]) was 1. The “diameter of the inhibition zone (DIZ)” value (Escherichia coli [17]) was 8 mm, the “diameter of the inhibition zone (DIZ)” value (Pseudomonas aeruginosa) was 7 mm and the “diameter of the inhibition zone (DIZ)” value (Escherichia coli [18]) was 10 mm. For the same molecule, the “diameter of the inhibition zone (DIZ)” value (Escherichia coli [19]) was 12 mm, the zone of inhibition at 500 µg/mL (Escherichia coli [5]) was 11 mm and the “diameter of the inhibition zone (DIZ)” value (Escherichia coli [20]) was 10 mm. The “diameter of the inhibition zone (DIZ)” value (Escherichia coli [21]) was 10 mm, the “diameter of the inhibition zone (DIZ)” value (Escherichia coli [22]) was 9 mm and the MBC (Salmonella typhi [6]) was 64 µg/mL (≈ 180 µM). For the same molecule, the “diameter of the inhibition zone (DIZ)” value (Escherichia coli [23]) was 11 mm, the “diameter of the inhibition zone (DIZ)” value (Escherichia coli [24]) was 10 mm and the hemolysis at 1 h [25] was < 10%. For the same molecule, the “diameter of the inhibition zone (DIZ)” value (Escherichia coli [26]) was 13 mm, the zone of inhibition at 500 µg/mL (Enterococcus faecalis [7]) was 13 mm and the “diameter of the inhibition zone (DIZ)” value (Bacillus subtilis [27]) was 8 mm. The “diameter of the inhibition zone (DIZ)” value (Escherichia coli [28]) was 11 mm, the “diameter of the inhibition zone (DIZ)” value (Escherichia coli [29]) was 11 mm and the MBC (Escherichia coli [8]) was 128 µg/mL (≈ 361 µM). For the same molecule, the “diameter of the inhibition zone (DIZ)” value (Escherichia coli [30]) was 11 mm, the “diameter of the inhibition zone (DIZ)” value (Escherichia coli [31]) was 11 mm and the hemolysis at 1 h, 1000 ug/ml [32] was < 20%. For the same molecule, the “diameter of the inhibition zone (DIZ)” value (Escherichia coli [33]) was 10 mm, the MBC (Staphylococcus aureus [9]) was 256 µg/mL (≈ 722 µM) and the “diameter of the inhibition zone (DIZ)” value (Escherichia coli [34]) was 11 mm. For the same molecule, the “diameter of the inhibition zone (DIZ)” value (Salmonella typhi [10]) was 6 mm, the “fractional inhibitory concentration index (FICI)” value (Staphylococcus aureus [11]) was 1.25 and the “diameter of the inhibition zone (DIZ)” value (Escherichia coli [35]) was 8 mm. The Activity (Staphylococcus aureus [36]) was “Active”, the Activity (Escherichia coli [37]) was “Active” and the “diameter of the inhibition zone (DIZ)” value (Escherichia coli [38]) was 13 mm. The “diameter of the inhibition zone (DIZ)” value (Escherichia coli [39]) was 11 mm, the “diameter of the inhibition zone (DIZ)” value (Escherichia coli [40]) was 11 mm and the “diameter of the inhibition zone (DIZ)” value (Escherichia coli [41]) was 9 mm. For the same molecule, the “diameter of the inhibition zone (DIZ)” value (Escherichia coli [42]) was 12 mm, the “diameter of the inhibition zone (DIZ)” value (Escherichia coli [43]) was 10 mm and the “diameter of the inhibition zone (DIZ)” value (Escherichia coli [44]) was 10 mm.

Reference: ChEMBL document CHEMBL6078713, “Synthesis and mechanistic studies of 4-aminoquinoline-Isatin molecular hybrids and Schiff's bases as promising antimicrobial agents” (Eur J Med Chem, 2025)
